Values of other authors, collected in patent publication US20060204442A1, “Magnetically targetable particles comprising magnetic components and biocompatible polymers for site-specific delivery of biologically active agents” (Bankruptcy Estate of Ferx, Inc., priority 2003, published 2006).

System: cell lines of the national Cancer Institute's Anticancer Drug Screen Panel
Conditions: Rixe et al., Biochem Pharmacol 52

## [NH2][Pt]([NH2])([Cl])[Cl] [CDDP, cisplatin]
  IC50, published value: 0.537 µg/mL
